Source: the supplement of paper PMC13380429
± gives the standard deviation of the averaged measurements.

Tests used:
Conditions in all cases: 72 h
[1] = test system: U2OS; assay: drug sensitivity score (DSS) for viability; higher = more toxic; extreme values may be limits of the assay
[2] = test system: Vero E6; assay: as above
[3] = test system: Calu-3; assay: as above
[4] = test system: Caco-2; assay: as above
[5] = test system: HepG2; assay: as above
[6] = test system: U2OS; assay: relative viability EC50 (midpoint between 100% and the lowest measured viability); higher = less toxic
[7] = test system: Vero E6; assay: as above
[8] = test system: Calu-3; assay: as above
[9] = test system: Caco-2; assay: as above
[10] = test system: HepG2; assay: as above
[11] = test system: U2OS; assay: cell viability relative to DMSO; higher = less toxic
[12] = test system: Vero E6; assay: as above
[13] = test system: Calu-3; assay: as above
[14] = test system: Caco-2; assay: as above
[15] = test system: HepG2; assay: as above

SMILES	drug sensitivity score [1]	drug sensitivity score [2]	drug sensitivity score [3]	drug sensitivity score [4]	drug sensitivity score [5]	relative viability EC50 [6]	relative viability EC50 [7]	relative viability EC50 [8]	relative viability EC50 [9]	relative viability EC50 [10]	cell viability ([11]; 1 nM)	cell viability ([11]; 10 nM)	cell viability ([11]; 100 nM)	cell viability ([11]; 1000 nM)	cell viability ([11]; 10000 nM)	cell viability ([12]; 1 nM)	cell viability ([12]; 10 nM)	cell viability ([12]; 100 nM)	cell viability ([12]; 1000 nM)	cell viability ([12]; 10000 nM)	cell viability ([13]; 1 nM)	cell viability ([13]; 10 nM)	cell viability ([13]; 100 nM)	cell viability ([13]; 1000 nM)	cell viability ([13]; 10000 nM)	cell viability ([14]; 1 nM)	cell viability ([14]; 10 nM)	cell viability ([14]; 100 nM)	cell viability ([14]; 1000 nM)	cell viability ([14]; 10000 nM)	cell viability ([15]; 1 nM)	cell viability ([15]; 10 nM)	cell viability ([15]; 100 nM)	cell viability ([15]; 1000 nM)	cell viability ([15]; 10000 nM)
CC(=O)N(CC(O)CO)c1c(I)c(C(=O)NCC(O)CO)c(I)c(C(=O)NCC(O)CO)c1I (stereo not given) [iohexol]	0	0	0	0	0	> 10 µM	> 10 µM	> 10 µM	> 10 µM	> 10 µM	98 ± 4.5%	99.2 ± 1.8%	99.4 ± 2%	99.9 ± 1.1%	104.5 ± 0.14%	96.2 ± 3.1%	101 ± 2.2%	98.7 ± 7.5%	99.7 ± 2.1%	106 ± 6.8%	104 ± 4.5%	95.5 ± 2.8%	95.8 ± 1.3%	104 ± 15%	103.7 ± 0.99%	95.9 ± 4.7%	101 ± 3%	101 ± 2.3%	106 ± 6.4%	96.3 ± 6%	96 ± 9.3%	103 ± 4.3%	99 ± 5.9%	102 ± 11%	91.7 ± 3%
CN(C)c1cccc(Oc2cnc(Nc3cccc(O)c3)nc2)c1 [SEN-1269]	0	0	0	0.9	0	> 10 µM	> 10 µM	> 10 µM	> 10 µM	> 10 µM	101%	102%	95.5%	99.5%	94.8%	98%	94.4%	95.9%	89.2%	93.4%	94.5%	99.7%	100%	95.4%	102%	96.5%	102%	102%	96.3%	82.3%	102%	104%	93.8%	93%	99.9%
O=[N+]([O-])c1cc(O)c(O)c([N+](=O)[O-])c1 [OR-486]	0	0	0	0	0	> 10 µM	> 10 µM	> 10 µM	> 10 µM	> 10 µM	98.2%	102%	96.5%	103%	98%	97.6%	99%	102%	100%	97%	102%	100%	95.2%	94%	99.5%	93.2%	103%	103%	97%	94.3%	101%	98.3%	98.3%	93.6%	96.7%
Cn1cnc2c1c(=O)[nH]c(=O)n2C [theobromine]	0	0	0	0	0	> 10 µM	> 10 µM	> 10 µM	> 10 µM	> 10 µM	92.6%	101%	95.7%	97.6%	100%	101%	92.7%	103%	98%	103%	91.3%	90.3%	100%	97.4%	98.8%	99.1%	110%	106%	121%	104%	87.6%	79.8%	99.3%	95.7%	95.6%
COc1cc(OC)c(C(=O)CCCCN2CCC3(CC2)NC(=O)NC3=O)cc1NS(=O)(=O)c1ccc(C(F)(F)F)cc1	0	0	0	0	0	> 10 µM	> 10 µM	> 10 µM	> 10 µM	> 10 µM	98.8%	106%	99.7%	101%	94.7%	103%	106%	102%	99.5%	99.7%	98.2%	108%	81.2%	93.9%	93.6%	102%	103%	107%	98.7%	93.6%	102%	111%	95.3%	89.1%	105%
O=C(Nc1ccccc1Br)N[C@@H]1CCN(c2ccc(C(F)(F)F)cn2)C1	0	0	0	0	0	> 10 µM	> 10 µM	> 10 µM	> 10 µM	> 10 µM	98.9%	102%	97.4%	104%	94.7%	108%	100%	103%	99.8%	96.9%	96.1%	98.5%	97.1%	97.4%	96.8%	86.7%	97.2%	97.9%	98%	86.9%	103%	106%	103%	97.8%	99.2%
COc1ccc(S(=O)(=O)N2c3ccc(Cl)cc3[C@](O)(c3ccccc3Cl)[C@@H]2C(=O)N2CCC[C@H]2C(N)=O)cc1OC [relcovaptan]	0	0	0	0	0	> 10 µM	> 10 µM	> 10 µM	> 10 µM	> 10 µM	103%	105%	102%	105%	99.2%	103%	99.8%	92.4%	97.2%	97.5%	91.8%	100%	93.3%	108%	86.7%	102%	102%	91.6%	102%	87.5%	108%	99.4%	108%	98.8%	94.3%
Cc1c(-c2cnccn2)ssc1=S [oltipraz]	0	0	0	0	0	> 10 µM	> 10 µM	> 10 µM	> 10 µM	> 10 µM	98.3%	96.5%	101%	96.4%	104%	88.1%	95.2%	88.7%	93%	104%	94%	94.7%	106%	96.5%	101%	94.2%	96%	103%	106%	101%	93.4%	103%	94.2%	94.7%	105%
O=C(Nc1cccc(C(F)(F)F)c1)Nc1ccc(Br)cc1-c1nnn[nH]1 [NS-3623]	0	0	0	0	0	> 10 µM	> 10 µM	> 10 µM	> 10 µM	> 10 µM	99.6%	97.8%	97.6%	99.2%	96.2%	93.3%	101%	92.4%	94.6%	110%	107%	92.8%	95.3%	102%	100%	98%	99.8%	100%	97.8%	101%	102%	102%	92.5%	98.7%	112%
CNCCN(C)Cc1c[nH]nc1-c1ccc(O[C@H]2C[C@H](OCCC3CCOCC3)C2)cc1	0	0	0	0	0	> 10 µM	> 10 µM	> 10 µM	> 10 µM	> 10 µM	99.5%	97.6%	100%	96.4%	97%	100%	105%	95.9%	102%	101%	96.2%	97.3%	94.1%	100%	100%	99.7%	100%	107%	90.4%	99.6%	98%	102%	109%	96.8%	90.9%
NC[C@H](O)c1ccc(O)c(O)c1 [norepinephrine]	0	0	0	0	0	> 10 µM	> 10 µM	> 10 µM	> 10 µM	> 10 µM	99.4%	100%	98.5%	99.8%	99.6%	99.9%	96.7%	98.1%	95%	98.6%	101%	88.3%	93.7%	98.6%	95.3%	88.9%	95.9%	101%	93.2%	97.5%	102%	95.3%	96%	105%	106%
CN1C(=O)CCS(=O)(=O)C1c1ccc(Cl)cc1 (stereo not given) [chlormezanone]	0	0	0	0	0	> 10 µM	> 10 µM	> 10 µM	> 10 µM	> 10 µM	101%	97.1%	102%	95.7%	103%	103%	106%	104%	103%	97.8%	96%	102%	96.6%	97.6%	102%	94.4%	96.2%	101%	95.7%	99.6%	96.5%	97.7%	96.7%	103%	103%
Cc1cc(O)c(C(C)C)cc1Cl [chlorothymol]	0	0	0	0	0	> 10 µM	> 10 µM	> 10 µM	> 10 µM	> 10 µM	99.5%	97.9%	104%	95.9%	102%	96.9%	96.9%	93.7%	100%	109%	100%	83.8%	101%	93.5%	91.9%	95.6%	90.3%	95.8%	101%	99.6%	89.8%	90.1%	92.9%	98.7%	104%
Cc1c(-c2ccccc2F)[nH]c(N)c1C#N [NS-8]	0	0	0	0	0	> 10 µM	> 10 µM	> 10 µM	> 10 µM	> 10 µM	98.1%	95.9%	99.8%	93.9%	103%	95.2%	99.1%	96.2%	97.7%	109%	104%	101%	83.6%	103%	99.2%	96.9%	90.1%	105%	97.5%	105%	93.1%	98.3%	90.7%	96.9%	116%
